Measurements taken from patent publication US20020107219A1, “Adenoviral vector containing cyclooxygenase-2 promoter and uses thereof” (priority 2000, published 2002).

Format: in vivo, C57BL/6 mice
Excerpt: To investigate the toxicity induced by the HSV-tk/GCV system, each group of ten C57BL/6 mice received a tail vein injection of AdCMV TK (10^9 pfu), Adcox2LTK (10^9 pfu) or phosphate-buffered saline on day 0. […] The mice were sacrificed on day 6 and the blood samples were collected to analyze total bilirubin, alanine aminotransferase (ALT), aspartate aminotransferase (AST) an d lactate dehydrogenase (LDH) at a veterinary laboratory (ANTECH Diagnostics, Farmingdale, N.Y.). For histopathological analysis, the major organs were fixed with 10% buffered formaldehyde, paraffin-embedded and cut in to 4 μm section, followed by deparaffinization and staining with hematoxylin and eosin.

In the case of `Nc1nc(O)c2ncn(COC(CO)CO)c2n1` [GCV, ganciclovir], the “serum samples (total bilirubin, ALT, AST, LDH)” value (only GCV, without virus) is reported as “did not show abnormality” and the “liver histology (H and E)” value (without virus administration) is reported as “appeared almost normal”.
